Source: patent US10617641B2, “Composition for preventing or treating ischemic diseases, containing liposomes in which VEGF-derived peptides are supported” (INDUSTRIAL COOPERATION FOUNDATION CHONBUK NATIONAL …, priority 2015, dated 2020)

System: myocardial infarction-induced rats
Experiment: Relative perfusion of the heart (99mTc-tetrofosmin autoradiography) in myocardial infarction model rats
Type: in vivo, Sprague-Dawley rats
Conditions: 200 μL through an apical puncture, after one week
Procedure: First, 8-week-old Sprague-Dawley rats were purchased from Orientbio Inc., and acclimated for 3 days under conditions such as a temperature of 22±3° C., a relative humidity of 60±20%, an air ventilation cycle of 10 to 20 times/hour, a 12-hour light/dark cycle (light on 08:00 A.M. and light off 08:00 P.M.), sterile feed, and water supplies. […] After a week, ^99mtechnetium (Tc)-tetrofosmin was used as a myocardial perfusion imaging agent to obtain an autoradiographic images of rat hearts, and the relative perfusion was measured using a method represented by the following Equation 1 to evaluate an therapeutic effect of the VEGF-derived peptide. Relative perfusion (%)={(Activity value of ^99mTc-tetrofosmin in cardiac ischemic area)/Activity value of ^99mTc-tetrofosmin in septum)}×100 [Equation 1]
All the subsequent statistical analyses were performed using SAS ver. 9.2 (SAS Institute, Cary, US), the significance of difference was determined using a Duncan's multiple range test (MRT) and ANOVA, and a significant difference at p<0.05 was evaluated. All data was assumed to be significant within a range of 5%, and represented by an average±standard deviation (SD).

Ac-MRIKPHQGQHI-NH2 [VEGF-derived peptide]
perfusion-improving effect (relative perfusion) compared to the control (PBS): significant results were not observed
